The nature of test [1]: Column experiment (Example 3): nitrate-polluted well water passed through column filled with material. Conditions: well water (nitrate nitrogen 14 mg/L) after column, passing time 5.5 hours, 21° C. The source says:
FIG. 3 is a view showing the structure of a column experiment apparatus used for effecting the method of decreasing nitrate nitrogen and volatile organic compounds in Example 3. Here, the column is a vessel having a function of decreasing nitrate nitrogen and volatile organic compounds, and decreases nitrate nitrogen and volatile organic compounds by allowing groundwater such as well water and the like to pass. In Example 3, a resin column having a diameter of 28 cm and a height of 2 m was used.
Well water evacuated from a well 23 by a pump 24 flow into this column 21 through an introduction port 25 of the column 21. It is so constituted that well water which comes into with the experiment material 22 while rising in the column 21, is discharged from an outflow port 26 formed at the upper part of the column 21.
Column experiments were conducted as described below using the column experiment apparatus constituted as described above.
From already-provided well polluted with nitrate nitrogen (nitrate nitrogen concentration: 14 mg/L), well water was evacuated by a pump 24 and allowed to flow into the column 21. In Example 3, six resin columns having a diameter of 28 cm and a height of 2 m were used, and experiments were conducted on 12 kinds of experiment materials using the resin columns each twice.
In the examples, experiment materials of the present invention such as fatty acids and alcohols were filled in columns (column Nos. 1 to 8) and comparative materials of conventional technologies were filled in columns (column Nos. 9 to 12) for comparison, and the evacuated groundwater was passed through them. In these experiments, substantial filling heights of the experiment materials in the columns were all 1.8 m. The passing time of groundwater in the column was 5.5 hours, and the average environment temperature during the experiment period was 21° C.
The nitrate nitrogen concentration, ammonia nitrogen concentration and total carbon concentration of the well water after passing through the column 30 days after initiation of passing of well water which is experiment initiation were measured.

Test [2] can be described thus: Artificial soil experiment (Example 1): materials mixed 1 wt % in kuroboku soil, analysis of water passed through the gravel layer. Particulars: water passed through soil with 1 wt % material, nitrate nitrogen solution 90 mg/L added 100 mL/day. On the procedure: FIG. 1 is a sectional view showing an artificial soil experiment facility used for effecting a soil experiment in a method of decreasing nitrate nitrogen and volatile organic compounds in Example 1.
On each experiment bath 7, nozzles are placed for adding a nitrate nitrogen solution, and these nozzles are communicated with a pipe 6 in which the nitrate nitrogen solution flows.
The following experiments were conducted using the artificial soil experiment facility constituted as described above.
In the experiment bath 7, a gravel layer 3 and experiment soil 2 are placed. In each experiment soil 2, a carrot seedling 5 is planted.
The ground surface area of the experimental bath 7 was 11 m^2, and the soil depth of the experimental soil 2 was 1.4 m. Kuroboku soil was used as the experimental soil 2. Under this experiment soil 2, a gravel layer 3 is formed by placing gravels at a thickness of 20 cm from the bottom.
In 14 compartments of experiment layers 7, five carrot seedlings having a leaf length of about 14 cm were planted in each compartment, and a nitrate nitrogen solution of which nitrate nitrogen concentration had been previously controlled to 90 mg/L was added continuously at a rate of 100 mL/day using a metering pump. Of 14 compartments of experiment layers 7, in compartments Nos. 1 to 9, experiment materials of the present invention were mixed in soil, and in compartments Nos. 10 to 14, comparative materials were mixed in soil, before experiments.
The experiment soils 2 in each test district and comparative district were made by uniformly mixing experiment materials (fatty acid, alcohol and the like) and comparative materials (materials used in conventional technologies) in a soil dry weight ratio of 1 wt %, previously.
In the artificial soil experiment facility constituted as described above, water passed through the gravel layer 3 was collected, and analyses of the nitrate nitrogen concentration, ammonia nitrogen concentration and total carbon concentration after 65 days were conducted according to JIS methods.

Test [3] in a line: Artificial groundwater experiment (Example 2): 800 g hydrogen donor added from artificial well, analysis of sampled groundwater. Conditions: 800 g material, nitrate nitrogen solution 40 mg/L added 12 mL/day. The source says: FIG. 2 is a sectional view showing an artificial groundwater experiment facility used for effecting a groundwater experiment in the method of decreasing nitrate nitrogen and volatile organic compounds in Example 2.
In the experiment bath 17 surrounded by the concrete block frame 11 in the artificial groundwater experiment facility, the ground surface area of the experiment soil 12 was 18 m^2, and the soil depth was 6.0 m. Under this experiment soil 12, a gravel layer 13 is formed at a thickness of 50 cm. A mixture of kuroboku soil and loam at a ratio of about 6:4 was used as the experiment soil 12.
In the experiment bath 17, an artificial well 14 constituted of a vinyl chloride tube having a diameter of 20 cm is provided. This artificial well 14 is provided at a position 0.5 m from the inner wall surface at one end of the experiment bath 17 (this inner wall surface is standard position) and has a depth of about 6 m, and reaches to the gravel layer 13. Further, a nitrate nitrogen solution addition piper 16 for adding a nitrate nitrogen solution is buried at a position 2 m from the inner wall surface (standard position) of the experiment bath 17 in the artificial groundwater experiment facility, extending to a position 4 m depth from the ground surface. A measurement water incorporating port 15 communicating to outside is provided on another inner wall surface opposite to the standard surface, one inner wall surface. This measurement water incorporating port 15 is formed at a position 50 cm from the bottom (corresponding to the uppermost part of the gravel layer 13), and provided for sampling measurement water which is groundwater.
The following experiments were conducted in 12 compartments using the artificial soil experiment facility constituted as described above.
In each experiment bath 17, a nitrate nitrogen solution of which nitrate nitrogen concentration had been previously controlled to 40 mg/L was added continuously from the end of the nitrate nitrogen solution adding pipe 16 (position 4 m from the ground surface) at a rate of 12 mL/day using a metering pump.
Under the above-mentioned conditions, movement of artificial groundwater is estimated to about 6.5 m/year. The present inventors have added 800 g of each hydrogen donor from the artificial well 14 in each test district and each comparative district. 30 days after initiation of the test, water was sampled from the measurement water incorporating port 15 formed at a position 50 cm from the bottom (corresponding to the uppermost part of gravel layer), and analyses of the nitrate nitrogen concentration, ammonia nitrogen concentration and total carbon concentration of the collected water were conducted according to JIS methods.

Test [4] is described as follows: Polluted soil experiment (Examples 4 to 7): 1,1,1-trichloroethane concentration in polluted soil by GC-MS. Particulars: Example 4, 1 wt % material in polluted soil (about 1400 μg/L initially), diammonium hydrogen phosphate fed. The source says: (§1) FIG. 4 is a view showing an experiment facility used for effecting the method of decreasing nitrate nitrogen and volatile organic compounds in Example 4. A part (a) of FIG. 4 is a plan view of the experiment facility, and a part (b) of FIG. 4 is a side view thereof.
(§2) As shown in the part (a) of FIG. 4, the polluted soil 32 is provided approximately at the center of the experiment bath 34 so that it is surrounded by the experiment soil 33.
(§3) In Example 4, the concrete frame 31 in the form of square measure is a cube of 1 m square having open upper part, and artificial soil prepared by mixing kuroboku soil and loam in equivalent amounts was charged in the experiment bath 34 formed with the concrete frame 31 and allowed to stand outdoors (average temperature: 21° C.) for about 2 months.
(§4) Then, the surface of the artificial soil formed as described above was dug to form a hole in the form of cylinder having a diameter of 30 cm and a depth of 50 cm, and this hole was re-buried with the polluted soil 32.
(§5) The polluted soil was obtained by adding experiment materials (containing no nitrogen atom) such as fatty acids and alcohols of the present invention and comparative materials of conventional technologies used for comparison in an amount of 1 wt % to 1.2 ton of soil polluted with 1,1,1-trichloroethane and 1,1-dichloroethylene (containing about 1400 μg/L of […], about 50 μg/L of 1,1-dichloroethylene, by elution test according to Kankoku No. 46), and mixing kuroboku soil and loam in equivalent amounts uniformly.
(§6) To the polluted soil formed as described above was fed diammonium hydrogen phosphate having a concentration of 100 mg/L as a nutrient salt (nitrogen source) at a ratio of 140 L/day.
(§7) Under the above-mentioned conditions, the concentrations of 1,1,1-trichloroethane and 1,1-dichloroethylene in the polluted soil 32 were measured by gas chromatograph mass spectrometry 20 days after initiation of the experiment. Soils around the re-buried polluted soil 32 (soils on four corners A to D at a depth of 50 cm in FIG. 4) were sampled, and four-point average values of the total carbon concentration and total nitrogen concentration per soil dried weight were measured.
(§8) In the method of decreasing nitrate nitrogen and volatile organic compounds in Example 5, the same experiment facility (FIG. 4) as in Example 4 was used. Stearic acid was used as the decreasing agent such as fatty acids, alcohols and the like used in the present invention, and an iron powder having an average particle size of about 15 μm was added simultaneously with this stearic acid, to give polluted soil of compartment No. 1. In polluted soil of compartment No. 2, stearic acid and an aluminum powder having an average particle size of 180 μm were added in the same concentration as the polluted soil of compartment No. 1. The same experiment as in Example 4 was conducted on these polluted soils (compartment Nos. 1, 2).
(§9) In the method of decreasing nitrate nitrogen and volatile organic compounds in Example 6, the same experiment facility (FIG. 4) as in Example 4 was used. Beef tallow fatty acid was used as the decreasing agent such as fatty acids, alcohols and the like used in the present invention, and a bacteria previously cultured was inoculated to the soil and the same experiment as in Example 4 was conducted.
(§10) For obtaining the bacteria used in Example 6, 1,1,1-trichloroethane was controlled to 5000 μg/L, 1,1-dichloroethylene was controlled to 5000 μg/L, diammonium hydrogen phosphate was controlled to 800 mg/L and beef tallow fatty acid which was only carbon source was controlled to 0.5 wt % in soil collected at a point of 30 cm depth from the ground surface of agricultural land (tea field), and the medium was cultured at a temperature of 16° C. for 12 days.
(§11) In the method of decreasing nitrate nitrogen and volatile organic compounds in Example 7, the same experiment facility (FIG. 4) as in Example 4 was used. […]

Test [5] in a line: Polluted soil experiment (Examples 4 to 7): 1,1-dichloroethylene concentration in polluted soil by GC-MS. Particulars: Example 4, 1 wt % material in polluted soil (about 50 μg/L initially), diammonium hydrogen phosphate fed.
Source text: as §1, §2, §3, §4, §5, §6, §7, §8, §9, §10, §11

Test [6] in a line: Well experiment in soil polluted with tetrachloroethylene (Example 8): analysis of water collected from the well. Conditions: 30 kg added over 6 days, initial about 0.25 mg/L. How it is done: In the method of decreasing nitrate nitrogen and volatile organic compounds in Example 8, an experiment was conducted using a well provided in soil polluted with tetrachloroethylene.
It had been known by previous investigation that about 125 m^2 of the surface of soil was polluted, and a water-containing layer at a position 6 m below the ground surface was polluted. In this water-containing layer, the tetrachloroethylene concentration was about 0.25 mg/L.
30 kg of stearylamine was gradually added over 6 days through a well in the polluted soil, and the tetrachloroethylene concentration, total carbon concentration and total nitrogen concentration after 90 days were analyzed from water collected from the well.

Consider `CCCCCCCCCCCCCCCCCCCCCC(=O)O` [Behenic acid], for which the “Nitrate nitrogen concentration after 30 days” value in test [1] was 1.8 mg/L. The same measure, in the same setting: then Sorbitan monomyristate, with 1.6 mg/L. With Sorbitan distearate, the “Nitrate nitrogen concentration after 65 days” value in test [2] is on record as 14 mg/L. On to `OC[C@H]1O[C@@](CO)(O[C@H]2O[C@H](CO)[C@@H](O)[C@H](O)[C@H]2O)[C@@H](O)[C@@H]1O` [Sucrose, reference compound], for which, in test [1], the “Nitrate nitrogen concentration after 30 days” value was found to be 15.0 mg/L. For the compound `CCCCCCCCCCCCCCCCCCO` [Stearyl alcohol], the “Nitrate nitrogen concentration after 30 days” value in test [3] turned out to be 4 mg/L. `CCCCCCCCCCCCCCOC(=O)CCCCCCCCCCCCC` [Myristyl myristate]: the “Nitrate nitrogen concentration after 30 days” value in test [3] was determined as 5 mg/L.

As to `CCCCCCCCCCCCCCCCCC(=O)OC` [Methyl stearate], the “Nitrate nitrogen concentration after 30 days” value in test [1] stood at 1.4 mg/L.

As to `CCCCCCCCCCCCCCCCCC(=O)O` [Stearic acid], the “Nitrate nitrogen concentration after 65 days” value in test [2] is listed as 22 mg/L. Besides, the “1,1,1-trichloroethane concentration after 20 days” value in test [4] was 820 µg/L. Further, the “1,1-dichloroethylene concentration after 20 days” value in test [5] stood at 24 µg/L.

Regarding `CCCCCCCCCCCCO` [lauryl alcohol], the “Nitrate nitrogen concentration after 65 days” value in test [2] is 18 mg/L. `CCCCCCCCCCCCCCCCOC(=O)CCCCCCCCCCCCCCC` [Cetyl palmitate]: in test [2], the “Nitrate nitrogen concentration after 65 days” value is given as 20 mg/L. For Myristilate, the “Nitrate nitrogen concentration after 30 days” value in test [3] came to 9 mg/L. Take `CCCCCCCCCCCCCCO` [Myristyl alcohol]: the “Nitrate nitrogen concentration after 30 days” value in test [1] was determined as 2.5 mg/L. For Sorbitan monopalmitate, the “Nitrate nitrogen concentration after 30 days” value in test [3] amounted to 5 mg/L. Take Tetraglyceryl pentastearate: the “Nitrate nitrogen concentration after 30 days” value in test [3] stood at 8 mg/L. As to `CCCCCCCCCCCCCCCCCCN` [stearylamine], the “tetrachloroethylene concentration after 90 days” value in test [6] is 0.08 mg/L. For `OC[C@H]1O[C@@H](O[C@H]2[C@H](O)[C@@H](O)C(O)O[C@@H]2CO)[C@H](O)[C@@H](O)[C@H]1O` (stereo partly drawn) [Lactose, reference compound], in test [2], the “Nitrate nitrogen concentration after 65 days” value is recorded as 41 mg/L.

(Values after US7030287B2, “Method of decreasing nitrate nitrogen and volatile organic compound in soil and groundwater” (Matsushita Electric Industrial Co., Ltd., priority 2001, dated 2006).)
